The record followed here is ChEMBL document CHEMBL1201862, “PubChem BioAssay data set” (2004).

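Test compounds were applied to cells in 96-well plates for 48 hours at 5 doses. GI50 is the concentration that inhibits growth by half.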 Calls of active or inactive are those of the source. No stated cut-off is given here; in the data, active = GI50 up to about 1.1 µM and inactive = higher.

Among the test systems are SNB-75; SK-MEL-2; 786-0; SNB-78; BT-549; Hs-578T; KM-20L2; RXF 393; PC-3; LOX IMVI; DMS-273; M19-MEL; ACHN; SK-OV-3; MDA-MB-435; HOP-18; SN12C; SF-539; NCI-H522; UACC-62.
Holding throughout (test): DTP human tumour cell line panel, 48 h

In general, GI50 refers to the concentration that inhibits growth by half. As to `CCC1(OC(=O)CN)C(=O)OCc2c1cc1n(c2=O)Cc2cc3ccccc3nc2-1` (centres undefined), the GI50 in the test on SNB-75 was 0.0213 µM (active); with SK-MEL-2, 0.0794 µM (active); in the test on 786-0, 0.01 µM (active); with SNB-78, 0.738 µM (active); in the test with BT-549 it was 0.0593 µM (active); in the test with Hs-578T, 6.14 µM (inactive). Besides, the GI50 with KM-20L2 is 0.124 µM (active); in the test with RXF 393 it was 0.0378 µM (active); in the test on PC-3 it was 0.0661 µM (active); with LOX IMVI it was < 0.0102 µM (active); in the test on DMS-273, 0.00471 µM (active); in the test on M19-MEL it was 0.123 µM (active). Moreover, the GI50 in the test on ACHN is 0.01 µM (active); in the test on SK-OV-3 it was 0.0297 µM (active); with MDA-MB-435, 0.0564 µM (active); in the test on HOP-18, 0.0975 µM (active); in the test on SN12C, 0.0113 µM (active); with SF-539, 0.01 µM (active). Also, the GI50 is 0.0188 µM (active) in the test with NCI-H522 and 0.01 µM (active) in the test on UACC-62.

As to `COc1ccc(C2N(NC(=O)c3ccncc3)C(=O)CS2(=O)=O)cc1F` (centres undefined), the GI50 in the test with SNB-75 is 37.6 µM (inactive); in the test with SK-MEL-2, > 100 µM (inactive); in the test on SNB-78, > 100 µM (inactive); with RXF 393 it was > 100 µM (inactive); in the test with LOX IMVI it was 60.4 µM (inactive); in the test with DMS-273 it was > 100 µM (inactive). Further, the GI50 in the test on ACHN was > 100 µM (inactive); in the test on SK-OV-3, > 100 µM (inactive); in the test with HOP-18, > 100 µM (inactive); in the test on SN12C it was > 100 µM (inactive); with NCI-H522, 92.3 µM (inactive).

As for `O=c1ccc2cc3ccc4cccc5ccc(c2o1)c3c45`, the GI50 is 24.7 µM (inactive) with SNB-75; > 100 µM (inactive) in the test on SK-MEL-2; > 100 µM (inactive) in the test on SNB-78; > 100 µM (inactive) in the test with KM-20L2; 12.1 µM (inactive) in the test with LOX IMVI; > 100 µM (inactive) with M19-MEL. In addition, the GI50 was 12.5 µM (inactive) in the test with ACHN; 13.6 µM (inactive) in the test with SK-OV-3; 5.7 µM (inactive) in the test with HOP-18; 25 µM (inactive) with SN12C; 9.64 µM (inactive) in the test with SF-539; 25.9 µM (inactive) in the test with NCI-H522. In the test with UACC-62, the GI50 is 47 µM (inactive).

As for `COc1cc(C2C(=O)C(Cl)N2Nc2nc(C)cc(O)n2)cc(OC)c1OC` (centres undefined), the GI50 is 2.33 µM (inactive) in the test on SNB-75; 11.2 µM (inactive) in the test with SK-MEL-2; 12.4 µM (inactive) in the test on SNB-78; 22.6 µM (inactive) with KM-20L2; 12.3 µM (inactive) in the test with RXF 393; 10.5 µM (inactive) in the test with LOX IMVI. Also, the GI50 in the test on DMS-273 was 10.4 µM (inactive); with M19-MEL, 18.7 µM (inactive); in the test on ACHN it was 11.1 µM (inactive); in the test on HOP-18, 2.67 µM (inactive); in the test with SN12C it was 14.7 µM (inactive); with SF-539, 13.5 µM (inactive). For the same molecule, in the test with UACC-62, the GI50 was > 10 µM (inactive).

As for `CC(C)(C)C(=O)OCC1C(=O)OCC1C(=O)N1Cc2cc3ccccc3nc2C1` (centres undefined), the GI50 was 7.74 µM (inactive) in the test on SNB-75; 8.59 µM (inactive) in the test with SK-MEL-2; 2.5 µM (inactive) in the test on 786-0; 1.53 µM (inactive) in the test on SNB-78; 3.14 µM (inactive) with BT-549; 15.3 µM (inactive) in the test with Hs-578T. Besides, the GI50 is 6.07 µM (inactive) in the test on KM-20L2; 1.5 µM (inactive) in the test with RXF 393; 10.9 µM (inactive) in the test on PC-3; 4.34 µM (inactive) with LOX IMVI; 3.04 µM (inactive) with DMS-273; 3.54 µM (inactive) in the test on M19-MEL. In addition, the GI50 in the test with ACHN was 2.36 µM (inactive); in the test with SK-OV-3, 16.1 µM (inactive); in the test with MDA-MB-435, 3.9 µM (inactive); in the test with HOP-18 it was 2.61 µM (inactive); in the test on SN12C it was 5.28 µM (inactive); in the test with SF-539 it was 4.46 µM (inactive). Also, the GI50 with NCI-H522 is 0.569 µM (active); in the test with UACC-62 it was 4.51 µM (inactive).

As to `Cc1ccc(CCC(=O)C(=O)O)s1`, the GI50 in the test on SNB-75, in the test with SK-MEL-2, with SNB-78, in the test on KM-20L2, with DMS-273 and in the test with M19-MEL was > 100 µM (inactive) in each case. Further, the GI50 with ACHN, in the test with SK-OV-3, in the test on HOP-18, in the test with SN12C, in the test with SF-539 and with NCI-H522 was > 100 µM (inactive) throughout. In addition, the GI50 in the test on UACC-62 was 19.4 µM (inactive).

On to `NC1CCCCC1`, for which the GI50 in the test with SNB-75 is 264 µM (inactive); in the test on SK-MEL-2, 169 µM (inactive); with SNB-78, 292 µM (inactive); in the test with KM-20L2, 192 µM (inactive); in the test with RXF 393, 347 µM (inactive); in the test with LOX IMVI it was 506 µM (inactive). Also, the GI50 with DMS-273 is 189 µM (inactive); with M19-MEL it was 187 µM (inactive); in the test on HOP-18, < 0.0562 µM (active); in the test on SN12C, > 562 µM (inactive); with SF-539, 164 µM (inactive); with NCI-H522, 344 µM (inactive). Also, the GI50 in the test on UACC-62 is 255 µM (inactive).

Consider `CC(=O)[C@H]1CCC2[C@@H]3CC=C4C(O)C(OS(=O)(=O)O)CC[C@]4(C)C3CC[C@@]21C` (some centres undefined), for which the GI50 in the test on SNB-75, in the test on SK-MEL-2, in the test on SNB-78, in the test with KM-20L2, in the test with RXF 393 and in the test on LOX IMVI was > 100 µM (inactive) throughout. Besides, the GI50 in the test on DMS-273, in the test on M19-MEL, in the test on SK-OV-3, with HOP-18, with SN12C and in the test on SF-539 was > 100 µM (inactive) in each case. In addition, the GI50 in the test on NCI-H522 and in the test with UACC-62 was > 100 µM (inactive) each time.

`O=C1CCC(c2ccccc2)=NN1c1nsc2ccccc12`: the GI50 in the test on SNB-75 is 7.21 µM (inactive); in the test on SK-MEL-2 it was > 100 µM (inactive); in the test with SNB-78, > 100 µM (inactive); with KM-20L2 it was > 100 µM (inactive); with RXF 393, > 100 µM (inactive); in the test on LOX IMVI, > 100 µM (inactive). The GI50 in the test with DMS-273 was 95.9 µM (inactive); with M19-MEL it was > 100 µM (inactive); in the test on ACHN, > 100 µM (inactive); in the test with HOP-18, 19.6 µM (inactive); with SN12C, > 100 µM (inactive); in the test on SF-539 it was > 100 µM (inactive). Further, the GI50 with UACC-62 was > 100 µM (inactive).

Take `COc1cc2ccc(CC(N)=O)cc2cc1OC`: the GI50 in the test on SNB-75 is 40.3 µM (inactive); with SK-MEL-2, > 100 µM (inactive); in the test on 786-0 it was > 100 µM (inactive); in the test with SNB-78, > 100 µM (inactive); in the test on KM-20L2 it was > 100 µM (inactive); with RXF 393, > 100 µM (inactive). The GI50 in the test on LOX IMVI, in the test on DMS-273, with M19-MEL, in the test with SK-OV-3, in the test with HOP-18 and in the test with SN12C was > 100 µM (inactive) in each case. For the same molecule, the GI50 in the test on SF-539, in the test on NCI-H522 and in the test with UACC-62 was > 100 µM (inactive) throughout.

Turning to `CC1[C@@H]2CC=C3C4CCC5Cc6nc7c(nc6C[C@@]5(C)C4CC(=O)[C@]32CO[C@@]1(O)C(O)CC(C)(C)O)CC1CCC2C3=C[C@H]4O[C@@]5(O[C@@](C)(CO)C[C@@H]5O)C(C)[C@@]4(O)[C@]3(C)[C@@H](O)CC2[C@]1(C)C7` (some centres undefined), the 50% growth inhibitory concentration (GI50) in the test with SNB-75 is < 0.00036 µM (active); in the test with SK-MEL-2, 0.00775 µM (active); in the test on SNB-78, 0.00146 µM (active); with KM-20L2, 0.0069 µM (active); with RXF 393 it was < 0.00036 µM (active); in the test on LOX IMVI, 0.0069 µM (active). Further, the concentration for 50% growth inhibition (GI50) with DMS-273 is < 0.00036 µM (active); with M19-MEL, 0.237 µM (active); with SK-OV-3, 0.00184 µM (active); in the test on HOP-18 it was 0.269 µM (active); in the test with SN12C it was 0.274 µM (active); with SF-539 it was 0.00201 µM (active). In addition, the GI50 in the test with NCI-H522 is 0.0455 µM (active); in the test with UACC-62, 0.00381 µM (active).
